Experiments:
Type in all cases: cell-based, human
GBA gene = test: Editing of the GBA gene in CD34+ cells, ICE analysis of sequencing data
Description: CD34+ cells were electroporated with RNP comprising the designed sgRNAs and with the designed ssODNs. Cells were screened by ICE analysis of sequencing data.
To optimize HDR-mediated editing of the GBA gene loci associated with Gaucher disease, ssODN candidates were screened for their ability to promote high editing efficiencies. Four ssODNs (ssODN1-4) comprising a sequence with a modification to generate the N409S mutation in exon 9 of the GBA gene and two ssODNs (ssODN5 and ssODN6) comprising a sequence with a modification to generate the L483P mutation in exon 10 of the GBA gene were screened. CD34+ cells were electroporated with different combinations of RNPs and ssODNs that corresponded to their respective target sequences, as described above, grown for 2-3 days, and then analyzed for cell viability and by sequencing (FIG. 10A).

CCR5 gene = test: ICE analysis of sequencing data, Pvu1 site insertion into CCR5 in CD34+ cells; conditions: for HDR-mediated editing efficiency (promoting HDR): CD34+ cells in SCGM with hSCF, FLT3-L, TPO, added to RNP and ssODN, FIG. 4A; for efficiency of HDR in CD34+ cells: SR1 and UM171, in the presence or in the absence of IL-6
Description: The presence of the Pvu1 restriction site in the CCR5 locus was also detected by sequencing. Sequencing data was analyzed via inference of CRISPR/Cas9 (ICE) software to quantify the percent of insertion of the 6 nucleotide Pvu1 site.
To determine conditions that would enhance HDR-mediated editing efficiency, the role of media conditions was assessed. CD34+ cells were cultured in stromal cell growth media (SCGM) supplemented with human stem cell factor (hSCF), Fms-like tyrosine kinase 3 Ligand (FLT3-L), and thrombopoietin (TPO) to promote cell differentiation and proliferation. Using ICE analysis of sequencing data to detect Pvu1 restriction site insertion into the CCR5 gene of CD34+ cells, cells were electroporated with DNA repair modulators to skew repair pathway utilization toward HDR following Cas9 cleavage in combination with cell expansion compounds Interleukin-6 (IL6), StemRegenin 1 (SR1), and UM171 in addition to RNP and ssODN. DNA repair modulators investigated included SCR7 (a ligase IV inhibitor), NU7441 (a DNA-PK inhibitor), Rucaparib (a PARP inhibitor), and RS-1 (an HDR enhancer).

T cells = test: T cell viability after electroporation and addition of NHEJ modulators; conditions: NU7441 1 μM, SCR7 5 μM, and/or SR1 5 μM in media 24 hours post-electroporation
RAB11a locus = test: Flow cytometry of EGFP reporter from capped dsODN integrated at RAB11a in T cells; conditions: 3 μg Cas9, 3 μg RAB11a sgRNA, 1 μg capped dsODN; NU7441 1 μM, SCR7 5 μM, and/or SR1 5 μM in media 24 hours post-electroporation
Description: Two respective capped, dsODNs were designed comprising an EGFP reporter and homology arms to direct integration at either the AAVS1 or RAB11a loci in T cells (FIG. 16A-16B). T cells were electroporated with dsODN and Cas9 RNP as described herein. Flow cytometry analyses were used to confirm EGFP expression in electroporated T cells. Approximately 20% of cells electroporated with capped, AAVS1 dsODN and 38% of cells electroporated with capped, RAB11a dsODN were GFP positive (FIG. 17A).

SG2: Cas9 sgRNA to human GBA, position 1226; targeting domain CACAUGGUACAGGAGGUUCU (SEQ ID NO: 6) (as printed in the source, key not given here)
editing efficiency of exon 9 of the GBA gene (GBA gene): high editing efficiency

O=C(Nc1ccc(Br)cc1)c1ccc(Br)c(S(=O)(=O)NCc2ccccc2)c1 [RS-1]
HDR-mediated editing efficiency (promoting HDR) (CCR5 gene): no significant advantage

CC(C)n1cnc2c(NCCc3ccc(O)cc3)nc(-c3csc4ccccc34)nc21 [SR1, StemRegenin 1]
HDR-mediated editing efficiency (promoting HDR) (CCR5 gene): improved | efficiency of HDR in CD34+ cells (CCR5 gene): significantly increase | T cell viability (T cells): reduced | increase in GFP expression (RAB11a locus): approximately 10%

SG6: Cas9 sgRNA to human GBA, position 1448; targeting domain UGCCAGUCAGAAGAACGACC (SEQ ID NO: 18) (as printed in the source, key not given here)
editing efficiency of exon 10 of the GBA gene (GBA gene): high editing efficiency

SG7: Cas9 sgRNA to human GBA, position 1448; targeting domain GCAUCAGUGCCACUGCGUCC (SEQ ID NO: 21) (as printed in the source, key not given here)
editing efficiency of exon 10 of the GBA gene (GBA gene): high editing efficiency

O=c1cc(N2CCOCC2)oc2c(-c3cccc4c3sc3ccccc34)cccc12 [NU7441]
HDR-mediated editing efficiency (promoting HDR) (CCR5 gene): no significant advantage | T cell viability (T cells): reduced | increase in GFP expression (RAB11a locus): approximately 10%

Cn1nnc(-c2ccc3c(c2)[nH]c2nc(Cc4ccccc4)nc(NC4CCC(N)CC4)c23)n1 (stereo not drawn) [UM171]
HDR-mediated editing efficiency (promoting HDR) (CCR5 gene): improved | efficiency of HDR in CD34+ cells (CCR5 gene): significantly increase

CNCc1ccc(-c2[nH]c3cc(F)cc4c3c2CCNC4=O)cc1 [Rucaparib]
HDR-mediated editing efficiency (promoting HDR) (CCR5 gene): no significant advantage

O=c1[nH]c(=S)[nH]c(N=Cc2ccccc2)c1N=Cc1ccccc1 [SCR7]
HDR-mediated editing efficiency (promoting HDR) (CCR5 gene): no significant advantage | increase in GFP expression (RAB11a locus): approximately 10%

SG4: Cas9 sgRNA to human GBA, position 1226; targeting domain CUAGAACCUCCUGUACCAUG (SEQ ID NO: 12) (as printed in the source, key not given here)
editing efficiency of exon 9 of the GBA gene (GBA gene): high editing efficiency

SG1: Cas9 sgRNA to human GBA, position 1226; targeting domain ACAUGGUACAGGAGGUUCUA (SEQ ID NO: 3) (as printed in the source, key not given here)
editing efficiency of exon 9 of the GBA gene (GBA gene): high editing efficiency

Interleukin-6 [IL6]
HDR-mediated editing efficiency (promoting HDR) (CCR5 gene): improved | overall editing efficiency (CCR5 gene; presence or absence of IL6 in CD34+ cell media, FIG. 4B): did not significantly affect | HDR (CCR5 gene; presence or absence of IL6 in CD34+ cell media, FIG. 4C): did not significantly affect

Source: patent publication US20250179531A1, “COMPOSITIONS AND METHODS FOR HOMOLOGY-DIRECTED REPAIR GENE MODIFICATION” (VOR BIOPHARMA INC., priority 2022, published 2025)
